pKi: −log10 of the molar value.
Biological target: T1, full-length ATR (Homo sapiens, UniProt Q13535)
T1 construct: Assays were carried out at 25° C. in the presence of 5 nM full-length ATR
Experiment: ATR Inhibition Assay (radioactive-phosphate incorporation)
Assay type: biochemical
Details: 5 nM full-length ATR, 10 μM [γ-33P]ATP, 800 μM target peptide, 25° C.; read-out: Ki value (Ki(app)) for inhibition of ATR
Experimental: Compounds were screened for their ability to inhibit ATR kinase using a radioactive-phosphate incorporation assay. Assays were carried out in a mixture of 50 mM Tris/HCl (pH 7.5), 10 mM MgCl2 and 1 mM DTT. Final substrate concentrations were 10 μM [γ-^33P]ATP (3mCi 33P ATP/mmol ATP, Perkin Elmer) and 800 μM target peptide ([…]).
Assays were carried out at 25° C. in the presence of 5 nM full-length ATR. An assay stock buffer solution was prepared containing all of the reagents listed above, with the exception of ATP and the test compound of interest. 13.5 μL of the stock solution was placed in a 96 well plate followed by addition of 2 μL of DMSO stock containing serial dilutions of the test compound (typically starting from a final concentration of 15 μM with 3-fold serial dilutions) in duplicate (final DMSO concentration 7%). The plate was pre-incubated for 10 minutes at 25° C. and the reaction initiated by addition of 15 μl [γ-^33P]ATP (final concentration 10 μM).
The reaction was stopped after […] by the addition of 30 μL 0.1M phosphoric acid containing 2 mM ATP. A multiscreen phosphocellulose filter 96-well plate (Millipore, Cat no. MAPHN0B50) was pretreated with 100 μL 0.2M phosphoric acid prior to the addition of 45 μL of the stopped assay mixture. The plate was washed with 5×200 μL 0.2M phosphoric acid. After drying, 100 μL Optiphase ‘SuperMix’ liquid scintillation cocktail (Perkin Elmer) was added to the well prior to scintillation counting (1450 Microbeta Liquid Scintillation Counter, Wallac).
After removing mean background values for all of the data points, Ki(app) data were calculated from non-linear regression analysis of the initial rate data using the Prism software package (GraphPad Prism version 3.0cx for Macintosh, GraphPad Software, San Diego Calif., USA).

T1 sequence (Q13535 whole entry): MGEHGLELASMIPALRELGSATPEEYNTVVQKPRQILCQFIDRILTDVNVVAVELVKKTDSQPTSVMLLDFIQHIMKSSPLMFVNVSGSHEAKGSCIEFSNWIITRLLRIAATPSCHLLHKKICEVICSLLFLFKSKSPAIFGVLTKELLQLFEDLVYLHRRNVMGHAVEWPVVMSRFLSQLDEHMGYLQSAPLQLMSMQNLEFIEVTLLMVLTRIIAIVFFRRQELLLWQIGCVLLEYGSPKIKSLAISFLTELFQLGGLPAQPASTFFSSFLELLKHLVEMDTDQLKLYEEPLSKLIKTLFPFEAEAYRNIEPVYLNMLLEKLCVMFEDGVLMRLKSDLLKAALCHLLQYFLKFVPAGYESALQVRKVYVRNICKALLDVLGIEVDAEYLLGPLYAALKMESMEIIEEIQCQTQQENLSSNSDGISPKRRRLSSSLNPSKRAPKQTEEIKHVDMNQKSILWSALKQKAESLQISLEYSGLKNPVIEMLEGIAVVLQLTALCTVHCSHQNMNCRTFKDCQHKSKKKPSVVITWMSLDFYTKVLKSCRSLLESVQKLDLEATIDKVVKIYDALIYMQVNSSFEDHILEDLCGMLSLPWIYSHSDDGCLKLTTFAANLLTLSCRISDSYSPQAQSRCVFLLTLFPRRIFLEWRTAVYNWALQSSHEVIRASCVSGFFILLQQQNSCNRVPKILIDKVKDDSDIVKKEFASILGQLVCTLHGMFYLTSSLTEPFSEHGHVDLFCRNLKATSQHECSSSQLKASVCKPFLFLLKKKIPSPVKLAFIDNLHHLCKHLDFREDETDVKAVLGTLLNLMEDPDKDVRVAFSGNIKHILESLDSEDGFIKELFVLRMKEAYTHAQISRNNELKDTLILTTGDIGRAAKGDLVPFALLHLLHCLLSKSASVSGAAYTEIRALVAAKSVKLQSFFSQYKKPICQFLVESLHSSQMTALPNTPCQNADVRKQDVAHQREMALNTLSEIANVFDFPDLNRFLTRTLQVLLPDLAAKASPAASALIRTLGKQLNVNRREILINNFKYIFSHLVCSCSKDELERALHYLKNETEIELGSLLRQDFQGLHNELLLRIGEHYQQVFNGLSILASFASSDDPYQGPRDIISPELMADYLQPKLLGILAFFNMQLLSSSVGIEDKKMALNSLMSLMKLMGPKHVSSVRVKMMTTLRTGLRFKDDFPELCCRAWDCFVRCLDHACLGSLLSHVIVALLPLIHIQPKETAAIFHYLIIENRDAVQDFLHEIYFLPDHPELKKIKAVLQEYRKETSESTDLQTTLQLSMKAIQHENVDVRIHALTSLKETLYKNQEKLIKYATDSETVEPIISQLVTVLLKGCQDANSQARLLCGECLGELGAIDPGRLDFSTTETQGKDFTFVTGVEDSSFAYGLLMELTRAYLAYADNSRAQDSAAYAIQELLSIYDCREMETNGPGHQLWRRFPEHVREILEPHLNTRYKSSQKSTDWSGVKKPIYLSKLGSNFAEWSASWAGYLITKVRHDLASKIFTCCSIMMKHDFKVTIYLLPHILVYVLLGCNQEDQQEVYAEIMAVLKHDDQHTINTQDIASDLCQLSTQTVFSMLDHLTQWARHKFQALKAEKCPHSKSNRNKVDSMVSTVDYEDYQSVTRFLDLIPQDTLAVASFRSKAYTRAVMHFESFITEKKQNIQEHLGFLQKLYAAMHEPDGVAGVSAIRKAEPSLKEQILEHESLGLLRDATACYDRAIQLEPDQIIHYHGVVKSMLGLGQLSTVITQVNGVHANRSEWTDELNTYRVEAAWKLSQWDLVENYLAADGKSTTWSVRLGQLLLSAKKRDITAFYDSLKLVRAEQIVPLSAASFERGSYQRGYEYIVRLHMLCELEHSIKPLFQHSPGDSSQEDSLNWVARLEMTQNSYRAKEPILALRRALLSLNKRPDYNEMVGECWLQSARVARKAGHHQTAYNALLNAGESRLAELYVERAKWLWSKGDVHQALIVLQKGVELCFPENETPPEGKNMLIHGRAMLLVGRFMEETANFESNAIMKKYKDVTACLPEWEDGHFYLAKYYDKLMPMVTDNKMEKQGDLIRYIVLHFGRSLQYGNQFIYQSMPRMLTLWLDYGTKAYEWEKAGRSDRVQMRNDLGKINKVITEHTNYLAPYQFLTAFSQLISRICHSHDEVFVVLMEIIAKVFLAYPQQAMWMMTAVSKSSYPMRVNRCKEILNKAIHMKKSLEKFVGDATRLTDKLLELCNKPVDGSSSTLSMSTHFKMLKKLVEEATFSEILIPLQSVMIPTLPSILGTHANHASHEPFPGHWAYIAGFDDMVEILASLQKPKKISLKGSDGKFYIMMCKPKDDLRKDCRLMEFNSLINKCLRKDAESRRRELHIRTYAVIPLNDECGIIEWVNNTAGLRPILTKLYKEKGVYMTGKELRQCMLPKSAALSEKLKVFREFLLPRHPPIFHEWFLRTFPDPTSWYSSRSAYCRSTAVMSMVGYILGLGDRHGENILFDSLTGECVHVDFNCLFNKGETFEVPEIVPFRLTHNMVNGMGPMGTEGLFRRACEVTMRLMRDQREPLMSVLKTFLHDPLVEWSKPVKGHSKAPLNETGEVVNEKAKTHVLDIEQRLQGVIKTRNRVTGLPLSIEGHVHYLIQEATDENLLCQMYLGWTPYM

`Cc1ncc(-c2ccc(S(C)(=O)=O)cc2)nc1C(=O)Nc1ccccc1` [Compound IV-1, 3-Methyl-6-(4-(methylsulfonyl)phenyl)-N-phenylpyrazine-2-carboxamide] showed a pKi of 6.30 to 6.60.
In the case of `CC(C)S(=O)(=O)c1ccc(-c2cncc(-c3cc(-c4ccccc4)no3)n2)cc1` [Compound IV-2, 5-(6-(4-(isopropylsulfonyl)phenyl)pyrazin-2-yl)-3-phenylisoxazole], the pKi was 6.60 to 7.00.
`CNCc1ccc(-c2cc(-c3cncc(-c4ccc(S(=O)(=O)C(C)C)cc4)n3)on2)cc1` [Compound IV-3, 1-(4-(5-(6-(4-(isopropylsulfonyl)phenyl)pyrazin-2-yl)isoxazol-3-yl)phenyl)-N-methylmethanamine] was tested, and the pKi was over 7.00.
